Assay results as given in patent US20230382925A1, “MODULATORS OF CYSTIC FIBROSIS TRANSMEMBRANE CONDUCTANCE REGULATOR” (VERTEX PHARMACEUTICALS INCORPORATED, priority 2020, published 2023).

Legend:
CFTR [1] = target: CFTR (Homo sapiens, UniProt P13569); assay: standard Ussing Chamber Assay for CFTR potentiator activity; format: cell-based
Method: tert-Butyl N-[(6R,12R)-6-benzyloxy-12-methyl-6,15-bis(trifluoromethyl)-13,19-dioxa-3,4,18-triazatricyclo[12.3.1.12,5]nonadeca-1(18),2,4,14,16-pentaen-17-yl]-N-tert-butoxycarbonyl-carbamate (8.6 g, 11.77 mmol) was dissolved in ethanol (172 mL) then the flask was cycled 3 times between vacuum/nitrogen. Treated the mixture with 10% Pd/C (50% water wet, 1.8 g of 5% w/w, 0.8457 mmol) then cycled 3 times between vacuum/nitrogen and 3 times between vacuum/hydrogen and then stirred vigorously under hydrogen (balloon) at room temperature for 18 h. The mixture was cycled 3 times between vacuum/nitrogen, filtered over Celite washing with ethanol and then the filtrate was evaporated to give 7.3 g of tert-butyl N-tert-butoxycarbonyl-N-[(6R,12R)-6-hydroxy-12-methyl-6,15-bis(trifluoromethyl)-13,19-dioxa-3,4,18-triazatricyclo[12.3.1.12,5]nonadeca-1(18),2,4,14,16-pentaen-17-yl]carbamate an off-white solid. 1H NMR and MS confirmed the expected product. CFTR modulatory activity was confirmed using a standard Ussing Chamber Assay for CFTR potentiator activity.

CFTR [2] = target: T1, CFTR (Homo sapiens, UniProt P13569, DEL508-508); assay: HBE2 assay: Ussing chamber assay of CFTR-mediated short-circuit currents (F508del/MF-HBE, with 44 nM potentiator); format: cell-based; conditions: F508del/MF-HBE cells; single fixed concentration 3 μM with 44 nM (6R,12R)-17-amino-12-methyl-6,15-bis(trifluoromethyl)-...-pentaen-6-ol, 18-24 hours, 20% human serum
T1 construct: human bronchial epithelial (HBE) cells derived from CF subjects heterozygous for F508del; endogenous in cells; host or cells: primary human bronchial epithelial cells from CF subjects (F508del/MF-HBE)
T1 sequence (P13569 with tags, fused parts or gaps DEL508-508): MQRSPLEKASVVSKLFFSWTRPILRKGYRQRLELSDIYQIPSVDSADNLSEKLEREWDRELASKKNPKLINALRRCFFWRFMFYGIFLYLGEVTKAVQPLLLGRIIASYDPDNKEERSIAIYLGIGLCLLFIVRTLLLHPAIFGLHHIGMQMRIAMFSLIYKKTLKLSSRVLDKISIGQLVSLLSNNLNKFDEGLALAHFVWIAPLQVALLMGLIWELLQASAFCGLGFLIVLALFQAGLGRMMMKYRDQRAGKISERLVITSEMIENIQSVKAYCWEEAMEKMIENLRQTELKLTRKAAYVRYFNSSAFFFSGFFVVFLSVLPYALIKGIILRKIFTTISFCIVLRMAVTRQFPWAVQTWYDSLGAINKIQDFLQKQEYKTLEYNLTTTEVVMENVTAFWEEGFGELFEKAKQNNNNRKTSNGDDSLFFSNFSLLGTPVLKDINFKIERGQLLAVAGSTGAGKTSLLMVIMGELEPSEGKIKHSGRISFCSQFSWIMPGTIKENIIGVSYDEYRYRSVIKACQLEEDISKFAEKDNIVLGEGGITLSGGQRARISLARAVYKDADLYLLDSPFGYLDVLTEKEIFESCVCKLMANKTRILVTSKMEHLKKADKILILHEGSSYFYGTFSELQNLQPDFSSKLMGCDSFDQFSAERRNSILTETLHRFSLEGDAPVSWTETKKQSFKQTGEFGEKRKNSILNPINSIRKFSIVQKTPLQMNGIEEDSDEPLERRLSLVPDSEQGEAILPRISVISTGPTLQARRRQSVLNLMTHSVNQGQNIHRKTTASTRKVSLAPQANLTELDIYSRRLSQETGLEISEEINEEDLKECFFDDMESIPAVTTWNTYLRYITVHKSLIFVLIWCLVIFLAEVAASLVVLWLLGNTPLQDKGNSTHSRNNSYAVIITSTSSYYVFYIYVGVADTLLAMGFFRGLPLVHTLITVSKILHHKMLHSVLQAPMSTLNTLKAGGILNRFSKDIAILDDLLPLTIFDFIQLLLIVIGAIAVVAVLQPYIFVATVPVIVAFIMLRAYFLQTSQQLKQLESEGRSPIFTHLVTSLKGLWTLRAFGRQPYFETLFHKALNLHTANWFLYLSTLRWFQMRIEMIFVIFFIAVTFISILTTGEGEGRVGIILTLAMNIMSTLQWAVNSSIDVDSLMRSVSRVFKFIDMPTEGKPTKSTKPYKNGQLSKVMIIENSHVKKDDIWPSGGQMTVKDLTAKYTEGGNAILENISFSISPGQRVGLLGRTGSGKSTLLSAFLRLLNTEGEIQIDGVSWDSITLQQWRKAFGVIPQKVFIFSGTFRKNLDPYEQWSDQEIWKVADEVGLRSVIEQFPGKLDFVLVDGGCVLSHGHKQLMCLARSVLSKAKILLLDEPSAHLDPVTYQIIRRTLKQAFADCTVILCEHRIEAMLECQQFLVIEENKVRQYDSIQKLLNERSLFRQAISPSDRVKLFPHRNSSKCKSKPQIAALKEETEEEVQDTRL
Method: 1. Ussing Chamber Assay of CFTR-mediated Short-circuit Currents
Ussing chamber experiments were performed using human bronchial epithelial (HBE) cells derived from CF subjects heterozygous for F508del and a minimal function CFTR mutation (F508del/MF-HBE) and cultured as previously described (Neuberger T, Burton B, Clark H, Van Goor F Methods Mol Biol 2011:741:39-54). After four days the apical media was removed, and the cells were grown at an air liquid interface for >14 days prior to use.
To isolate the CFTR-mediated short-circuit (ISC) current, F508del/MF-HBE grown on Costar® Snapwell™ cell culture inserts were mounted in an Ussing chamber and the transepithelial ISC was measured under voltage-clamp recording conditions (Vhold=0 mV) at 37° C. The basolateral solution contained (in mM) 145 NaCl, 0.83 K2HPO4, 3.3 KH2PO4, 1.2l MgCl2, 1.2 CaCl2), 10 Glucose, 10 HEPES (pH adjusted to 7.4 with NaOH) and the apical solution contained (in mM) 145 NaGluconate, 1.2 MgCl2, 1.2 CaCl2), 10 glucose, 10 HEPES (pH adjusted to 7.4 with NaOH) and 30 μM amiloride to block the epithelial sodium channel. […] The CFTR-mediated ISC (μA/cm^2) for each condition was determined from the peak forskolin response to the steady-state current following inhibition. […]
The activity of the CFTR corrector compounds on the CFTR-mediated ISC was determined in Ussing chamber studies as described above. […]

CFTR (Homo sapiens, UniProt P13569), sequence (P13569 whole entry, species assumed): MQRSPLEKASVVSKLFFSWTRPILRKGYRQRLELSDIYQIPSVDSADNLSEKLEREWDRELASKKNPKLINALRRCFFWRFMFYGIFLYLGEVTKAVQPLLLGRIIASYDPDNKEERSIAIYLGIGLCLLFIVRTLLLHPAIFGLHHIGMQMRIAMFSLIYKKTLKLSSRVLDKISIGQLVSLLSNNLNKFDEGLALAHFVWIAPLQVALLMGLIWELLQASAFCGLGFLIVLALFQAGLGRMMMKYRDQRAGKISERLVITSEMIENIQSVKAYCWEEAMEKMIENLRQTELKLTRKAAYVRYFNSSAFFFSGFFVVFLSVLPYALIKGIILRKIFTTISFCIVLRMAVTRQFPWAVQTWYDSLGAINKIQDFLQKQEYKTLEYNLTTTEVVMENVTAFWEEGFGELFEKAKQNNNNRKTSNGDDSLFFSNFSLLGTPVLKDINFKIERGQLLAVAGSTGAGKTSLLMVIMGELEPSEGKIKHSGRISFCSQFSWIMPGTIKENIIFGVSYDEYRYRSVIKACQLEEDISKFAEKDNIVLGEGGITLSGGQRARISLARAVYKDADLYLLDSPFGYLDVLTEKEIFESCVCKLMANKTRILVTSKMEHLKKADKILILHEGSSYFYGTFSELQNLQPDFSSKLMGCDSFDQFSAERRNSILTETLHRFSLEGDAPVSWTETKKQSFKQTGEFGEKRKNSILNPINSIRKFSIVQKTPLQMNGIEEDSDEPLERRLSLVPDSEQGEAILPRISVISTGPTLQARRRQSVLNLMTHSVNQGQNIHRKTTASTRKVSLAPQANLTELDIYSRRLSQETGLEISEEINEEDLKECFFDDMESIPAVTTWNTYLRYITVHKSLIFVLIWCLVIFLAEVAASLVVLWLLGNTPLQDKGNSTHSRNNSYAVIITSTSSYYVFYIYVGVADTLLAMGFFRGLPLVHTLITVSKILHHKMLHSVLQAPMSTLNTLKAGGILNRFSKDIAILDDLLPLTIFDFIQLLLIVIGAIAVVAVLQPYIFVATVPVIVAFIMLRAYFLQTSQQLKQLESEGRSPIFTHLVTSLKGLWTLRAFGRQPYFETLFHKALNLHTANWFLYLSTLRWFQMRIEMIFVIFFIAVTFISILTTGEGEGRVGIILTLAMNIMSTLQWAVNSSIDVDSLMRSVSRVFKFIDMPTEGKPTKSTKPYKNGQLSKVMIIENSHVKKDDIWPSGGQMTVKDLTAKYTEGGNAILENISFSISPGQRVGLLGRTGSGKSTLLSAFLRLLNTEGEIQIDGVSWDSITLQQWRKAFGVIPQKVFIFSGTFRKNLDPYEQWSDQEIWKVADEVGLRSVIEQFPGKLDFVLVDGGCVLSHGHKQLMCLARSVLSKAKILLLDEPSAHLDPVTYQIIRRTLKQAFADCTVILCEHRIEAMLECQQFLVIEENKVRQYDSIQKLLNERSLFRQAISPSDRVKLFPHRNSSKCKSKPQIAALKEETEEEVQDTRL

Structure (SMILES) | CFTR modulatory activity (potentiator activity) (CFTR [1]) | HBE2 Activity at 3 μM (CFTR [2])
C[C@@H]1CCCCC[C@](O)(C(F)(F)F)C2=NN=C(O2)c2nc(c(C(F)(F)F)cc2N)O1 [(6R,12R)-17-amino-12-methyl-6,15-bis(trifluoromethyl)-13,19-dioxa-3,4,18-triazatricyclo[12.3.1.12,5] nonadeca-1(18),2,4,14,16-pentaen-6-ol] | confirmed | –
Cc1cccc(C)c1-c1cc2nc(n1)NS(=O)(=O)c1cccc(c1)C(=O)N(C1CCCN(C)C1=O)[C@H](CC(C)(C)C)CO2 (stereo partly drawn) [Compound 507, (11R)-6-(2,6-Dimethylphenyl)-11-(2,2-dimethylpropyl)-12-(1-methyl-2-oxo-3-piperidyl)-2,2-dioxo-9-oxa-2λ^6-thia-3,5,12,19-tetrazatricyclo[12.3.1.14,8]nonadeca-1(18),4(19),5,7,14,16-hexaen-13-one] | – | +++ (+++ is >60%)
Cc1cccc(C)c1-c1cc2nc(n1)NS(=O)(=O)c1cccc(c1)C(=O)N(C1CCN(C)C1=O)[C@H](CC(C)(C)C)CO2 (stereo partly drawn) [Compound 508, (11R)-6-(2,6-Dimethylphenyl)-11-(2,2-dimethylpropyl)-12-(1-methyl-2-oxo-pyrrolidin-3-yl)-2,2-dioxo-9-oxa-2λ^6-thia-3,5,12,19-tetrazatricyclo[12.3.1.14,8]nonadeca-1(18),4(19),5,7,14,16-hexaen-13-one] | – | +++ (+++ is >60%)
